From patent US3933794A, “2-(2-Alkynylamino)-3H-1,4-benzodiazepines” (priority 1973, dated 1976)

System: mice
Assay: Chimney test
Type: in vivo
Settings: Mus musculus, ip, intraperitoneal injection, 50% of mice fail to back out of glass cylinder within 30 seconds, read-out: ED50 Ch (chimney test)
Excerpt: (§1) Sedative effects of the compounds of this invention are shown by the following tests in mice:
Chimney test: [Med. Exp. 4, 145 (1961)]: The test determines the ability of mice to back up and out of a vertical glass cylinder within 30 seconds. At the effective dosage, 50% of the mice failed doing it.

| SMILES | ED50 [mg/kg] |
| --- | --- |
| O=Cc1cnc2n1-c1ccc(Cl)cc1C(c1ccccc1)=NC2 [8-chloro-6-phenyl-4H-imidazo[1,2-a][1,4]benzodiazepine-1-carboxaldehyde] | 4 |
| Cc1cnc2n1-c1ccc(Cl)cc1C(c1ccccc1)=NC2 [8-chloro-1-methyl-6-phenyl-4H-imidazo[1,2-a]-[1,4]benzodiazepine] | 25 |
| Cc1cnc2n1-c1ccc(Cl)cc1C(c1ccccc1Cl)=NC2 [8-chloro-6-(2-chlorophenyl)-1-methyl-4H-imidazo[1,2-a][1,4]benzodiazepine] | 0.5 |

System: mice
Assay: Nicotine antagonism test
Type: in vivo
Settings: Mus musculus, ip, 0.5 h, intraperitoneal injection, nicotine salicylate 2 mg./kg. 30 minutes later, (3) = death, read-out: ED50 Ni (nicotine antagonism (3) test)
Description: as §1
Nicotine antagonism test: Mice in a group of 6 are injected with the text compound. Thirty minutes later the mice including control (untreated) mice are injected with nicotine salicylate (2 mg./kg.). The control mice show over-stimulation, i.e., (1) running convulsions followed by (2) tonic extensor filts; followed by (3) death.

| SMILES | ED50 [mg/kg] |
| --- | --- |
| O=Cc1cnc2n1-c1ccc(Cl)cc1C(c1ccccc1)=NC2 [8-chloro-6-phenyl-4H-imidazo[1,2-a][1,4]benzodiazepine-1-carboxaldehyde] | 0.36 |
| Cc1cnc2n1-c1ccc(Cl)cc1C(c1ccccc1)=NC2 [8-chloro-1-methyl-6-phenyl-4H-imidazo[1,2-a]-[1,4]benzodiazepine] | 1.8 |
| Cc1cnc2n1-c1ccc(Cl)cc1C(c1ccccc1Cl)=NC2 [8-chloro-6-(2-chlorophenyl)-1-methyl-4H-imidazo[1,2-a][1,4]benzodiazepine] | 0.13 |

System: mice
Assay: Antagonism to strychnine (as sulfate)
Type: in vivo
Settings: Mus musculus, ip, 4 h, read-out: ED50 Str (strychnine antagonism)
Description: as §1
Antagonism to strychnine (as sulfate): The test consists in orally administering into groups of 6 mice the test compound, and 30 minutes later 3 mg./kg. strychnine sulfate intraperitoneally. The survivors after 4 hours reflect the activity of the compound as a muscle relaxant and antispasmodic. A dosage of 3 mg./kg. of strychnine sulfate is routinely fatal to all the control mice.

| SMILES | ED50 [mg/kg] |
| --- | --- |
| O=Cc1cnc2n1-c1ccc(Cl)cc1C(c1ccccc1)=NC2 [8-chloro-6-phenyl-4H-imidazo[1,2-a][1,4]benzodiazepine-1-carboxaldehyde] | 11 |
| Cc1cnc2n1-c1ccc(Cl)cc1C(c1ccccc1)=NC2 [8-chloro-1-methyl-6-phenyl-4H-imidazo[1,2-a]-[1,4]benzodiazepine] | 79 |
| Cc1cnc2n1-c1ccc(Cl)cc1C(c1ccccc1Cl)=NC2 [8-chloro-6-(2-chlorophenyl)-1-methyl-4H-imidazo[1,2-a][1,4]benzodiazepine] | 1.8 |

System: mice
Assay: Pedestal test
Type: in vivo
Settings: Mus musculus, ip, 1 min, intraperitoneal injection, mice stay on pedestal for more than 1 minute, read-out: ED50 P (pedestal test)
Description: as §1
Pedestal test: The untreated mouse leaves a standard pedestal in less than a minute to climb back to the floor of the standard mouse box. Tranquilized mice will stay on the pedestal for more than 1 minutes.

| SMILES | ED50 [mg/kg] |
| --- | --- |
| O=Cc1cnc2n1-c1ccc(Cl)cc1C(c1ccccc1)=NC2 [8-chloro-6-phenyl-4H-imidazo[1,2-a][1,4]benzodiazepine-1-carboxaldehyde] | 2.8 |
| Cc1cnc2n1-c1ccc(Cl)cc1C(c1ccccc1)=NC2 [8-chloro-1-methyl-6-phenyl-4H-imidazo[1,2-a]-[1,4]benzodiazepine] | 28 |
| Cc1cnc2n1-c1ccc(Cl)cc1C(c1ccccc1Cl)=NC2 [8-chloro-6-(2-chlorophenyl)-1-methyl-4H-imidazo[1,2-a][1,4]benzodiazepine] | 0.4 |

System: mice
Assay: Dish test
Type: in vivo
Settings: Mus musculus, ip, 0.05 h, intraperitoneal injection, 50% of mice remain in dish for more than 3 minutes, read-out: ED50 D (dish test)
Description: as §1
Dish test: Mice in Petri dishes (10 cm. diameter, 5 cm. high, partially embedded in wood shavings), climb out in a very short time, when not treated. Mice remaining in the dish for more than 3 minutes indicates tranquilization. ED50 equals the dose of test compound at which 50% of the mice remain in the dish.

| SMILES | ED50 [mg/kg] |
| --- | --- |
| O=Cc1cnc2n1-c1ccc(Cl)cc1C(c1ccccc1)=NC2 [8-chloro-6-phenyl-4H-imidazo[1,2-a][1,4]benzodiazepine-1-carboxaldehyde] | 0.8 |
| Cc1cnc2n1-c1ccc(Cl)cc1C(c1ccccc1)=NC2 [8-chloro-1-methyl-6-phenyl-4H-imidazo[1,2-a]-[1,4]benzodiazepine] | 5 |
| Cc1cnc2n1-c1ccc(Cl)cc1C(c1ccccc1Cl)=NC2 [8-chloro-6-(2-chlorophenyl)-1-methyl-4H-imidazo[1,2-a][1,4]benzodiazepine] | 0.23 |
